Source: PMC6017631, “The Effect of Combining Natural Terpenes and Antituberculous Agents against Reference and Clinical Mycobacterium tuberculosis Strains” (Molecules : A Journal of Synthetic Chemistry and Natural …, 2018)
Converted amounts (≈) assume the structure as drawn. Read-outs that look alike come from different tables or passages of the source. Marks after values point to notes of the source that are not given here.

Key:
[1] = tested on: Vero cell line; conditions: cited from earlier work
[2] = tested on: H37RV ATTC 25618; test: MIC determination, serial dilution in Middlebrook 7H9, and FICI; assay type: cell-based, Mycobacterium tuberculosis
[3] = tested on: clinical isolate 192 (susceptible); test: microbe, parasite or virus in culture; assay type: cell-based, Mycobacterium tuberculosis
[4] = tested on: Mtb H37Ra ATTC 25177; test: MIC determination, serial dilution in Middlebrook 7H9, and FICI; assay type: cell-based, Mycobacterium tuberculosis
[5] = tested on: clinical isolate 253/16; test: microbe, parasite or virus in culture; assay type: cell-based, Mycobacterium tuberculosis
[6] = tested on: GMK cells; test: Cytotoxicity, MTT assay; assay type: cell-based, African green monkey; conditions: GMK cells, 48 h exposure, MTT; highest tested concentration 500 μg/mL
Protocol: (§1) The cytotoxicity experiment was performed using African green monkey kidney epithelial cells (GMK) obtained from BIOMED-Lublin S.A. (Lublin, Poland). The cells were cultured in EMEM medium (ATCC-LGC Standards, Cumberland, ME, USA) supplemented with 10% foetal bovine serum (FBS, Pan-Biotech, Aidenbach, Germany), penicillin (100 U/mL), and streptomycin (100 μg/mL) (Sigma-Aldrich, St. Louis, MO, USA). The GMK cells were maintained at 37 °C in a humidified atmosphere of 5% CO2 and 95% air. The GMK cells were seeded in 96-multiwell plates in 100 μL of the complete EMEM medium at a concentration of 3 × 10^5 cells/mL (3 × 10^4 cells/well) and the plates were maintained at 37 °C for 24 h. Then, the culture medium was replaced with 100 µL of different concentrations of tested agents and 2 reference anti-mycobacterial drugs—rifampicin and isoniazid. The stock solutions of all compounds were prepared in DMSO (Sigma-Aldrich, St. Louis, MO, USA), thus the highest solvent concentrations (1% and 0.5% DMSO) used in the experiment were tested in parallel to exclude potential toxicity associated with the use of DMSO. Different concentrations of the tested agents were obtained by six serial 2-fold dilutions using culture medium (the highest tested concentration was equal 500 µg/mL). GMK cells maintained in culture medium without anti-mycobacterial agent served as a negative control of cytotoxicity. The cells were exposed to tested compounds and reference drugs for 48 h, then cytotoxicity test was performed using MTT assay (Sigma-Aldrich, St. Louis, MO, USA) as it was described previously. The cytotoxicity test was repeated in three separate experiments (n = 3) and each experiment was carried out in quadruplicate. The IC50 values (concentration reducing viability of GMK cells by 50%) were determined using GraphPad Prism 5, Version 5.03 software (GraphPad Software, Inc., La Jolla, CA, USA).

[7] = Cytotoxicity, MTT assay; assay type: cell-based, African green monkey; conditions: African green monkey; for IC50 at 48 h: GMK cells, 48 h exposure, MTT, highest tested concentration 500 μg/mL
Protocol: as §1

[8] = tested on: reference virulent strain H37Rv; set-up: method as in PMID 26400221; conditions: Alamar Blue technique, 8 days of incubation ref 36; cited from earlier work
[9] = Mycobacterium tuberculosis, H37RV
[10] = Mycobacterium tuberculosis, H37RV, read-out: MIC for INH in a Presence of Terpenes
[11] = Mycobacterium tuberculosis, H37Rv, subinhibitory concentration of the terpene, read-out: MIC for EMB in a Presence of Terpenes
[12] = Mycobacterium tuberculosis, H37Rv, subinhibitory concentration of the terpene, read-out: MIC for RMP in a Presence of Terpenes
[13] = Mycobacterium tuberculosis, read-out: MIC for EMB in a Presence of Terpenes
[14] = Mycobacterium tuberculosis, read-out: MIC for INH in a Presence of Terpenes
[15] = Mycobacterium tuberculosis, read-out: MIC for RMP in a Presence of Terpenes
[16] = Mycobacterium tuberculosis, compounds tested separately, read-out: MIC
[17] = Mycobacterium tuberculosis, subinhibitory concentration of the terpene, read-out: MIC for EMB in a Presence of Terpenes
[18] = Mycobacterium tuberculosis, subinhibitory concentration of the terpene, read-out: MIC for INH in a Presence of Terpenes
[19] = Mycobacterium tuberculosis, subinhibitory concentration of the terpene, read-out: MIC for RMP in a Presence of Terpenes
[20] = compounds tested separately, H37Rv
[21] = compounds tested separately, 192
[22] = compounds tested separately, 253/16
[23] = GMK cells (African green monkey kidney epithelial cells)
[24] = Mycobacterium tuberculosis, compounds tested separately, H37Rv, read-out: MIC

Compound: C=CC(=C)CCC=C(C)C [myrcene]
- IC50 (cytotoxicity) ([1]; determined on Vero cell Line ref 31): 200 * μg/mL
- cytotoxic activity ([1]; up to a concentration of 200 μg/mL, Vero cell line ref 33): did not present cytotoxic activity
- MIC [2, 9]: 256 µg/mL
- MIC [2, 10]: < 0.125 µg/mL
- MIC [2, 11]: 0.25 µg/mL
- MIC [2, 12]: 0.25 µg/mL
- MIC ([3]; Mycobacterium tuberculosis): 256 µg/mL (≈ 1880 µM)
- MIC [3, 13]: < 0.125 µg/mL
- MIC [3, 14]: < 0.125 µg/mL
- MIC [3, 15]: < 0.125 µg/mL
- MIC [4, 16]: 128 µg/mL
- MIC [4, 17]: 0.5 µg/mL
- MIC [4, 18]: 0.0625 µg/mL
- MIC [4, 19]: 0.125 µg/mL
- MIC ([5]; Mycobacterium tuberculosis): > 512 µg/mL
- MIC [5, 13]: 64 µg/mL
- MIC [5, 14]: 8 µg/mL
- MIC [5, 15]: 4 µg/mL

Compound: (S)-limonene
- IC50 (cytotoxicity) [6]: >500 µg/mL
- MIC [2, 20]: 256 µg/mL
- MIC [3, 21]: 256 µg/mL
- MIC ([4]; compounds tested separately): 32 µg/mL
- MIC [5, 22]: >512 µg/mL

Compound: CO[C@H]1/C=C/O[C@@]2(C)Oc3c(C)c(O)c4c(O)c(c(/C=N/N5CCN(C)CC5)c(O)c4c3C2=O)NC(=O)/C(C)=C\C=C\[C@H](C)[C@H](O)[C@@H](C)[C@@H](O)[C@@H](C)[C@H](OC(C)=O)[C@@H]1C [RMP, rifampicin, reference compound]
- IC50 at 48 h [7, 23]: 142 µg/mL (≈ 172 µM)
- MIC [2, 24]: 0.25 µg/mL
- MIC ([3]; Mycobacterium tuberculosis): < 0.125 µg/mL
- MIC [4, 16]: 1 µg/mL
- MIC ([5]; Mycobacterium tuberculosis): 4 µg/mL (≈ 4.86 µM)

Compound: CC1=CCC2CC1C2(C)C (stereo not drawn) [α-pinene]
- IC50 at 48 h [7, 23]: > 500 µg/mL
- viability at 48 h, 500 µg/mL ([7]; GMK cells (African green monkey kidney epithelial cells), exposure to the highest tested concentration (500 μg/mL)): ~90%
- MIC [2, 9]: 128 µg/mL
- MIC ([2]; Mycobacterium tuberculosis, H37RV, read-out: MIC for EMB in a Presence of Terpenes): 0.125 µg/mL
- MIC [2, 10]: < 0.125 µg/mL
- MIC [2, 12]: 0.25 µg/mL
- MIC ([3]; Mycobacterium tuberculosis): 128 µg/mL (≈ 940 µM)
- MIC [3, 13]: < 0.125 µg/mL
- MIC [3, 14]: < 0.125 µg/mL
- MIC [3, 15]: < 0.125 µg/mL
- MIC [4, 16]: 128 µg/mL
- MIC [4, 17]: 1 µg/mL
- MIC [4, 18]: 0.125 µg/mL
- MIC [4, 19]: 0.0625 µg/mL
- MIC ([5]; Mycobacterium tuberculosis): 256 µg/mL (≈ 1880 µM)
- MIC [5, 13]: 32 µg/mL
- MIC [5, 14]: 8 µg/mL
- MIC [5, 15]: 4 µg/mL

Compound: C=C(C)[C@H]1CC=C(C)CC1 [(R)-limonene]
- IC50 (cytotoxicity) [6]: >500 µg/mL
- MIC [2, 20]: 128 µg/mL
- MIC [3, 21]: 128 µg/mL (≈ 940 µM)
- MIC ([4]; compounds tested separately): 32 µg/mL
- MIC [5, 22]: 256 µg/mL (≈ 1880 µM)

Compound: Cc1ccc(C(C)C)cc1O [carvacrol]
- MIC [8]: 2.02 µg/mL (≈ 13.4 µM)

Compound: C=C1CCC2(C(C)C)CC12 (stereo not drawn) [sabinene]
- IC50 at 48 h [7]: 348 µg/mL (≈ 2550 µM)
- MIC [2, 9]: 128 µg/mL
- MIC [2, 10]: < 0.125 µg/mL
- MIC [2, 11]: 0.25 µg/mL
- MIC [2, 12]: 0.25 µg/mL
- MIC ([3]; Mycobacterium tuberculosis): 128 µg/mL (≈ 940 µM)
- MIC [3, 13]: < 0.125 µg/mL
- MIC [3, 14]: < 0.125 µg/mL
- MIC [3, 15]: < 0.125 µg/mL
- MIC [4, 16]: 64 µg/mL
- MIC [4, 17]: 0.5 µg/mL
- MIC [4, 18]: 0.0625 µg/mL
- MIC [4, 19]: 0.0625 µg/mL
- MIC ([5]; Mycobacterium tuberculosis): 256 µg/mL (≈ 1880 µM)
- MIC [5, 13]: 64 µg/mL
- MIC [5, 14]: 8 µg/mL
- MIC [5, 15]: 4 µg/mL

Compound: C=C[C@]1(C)CC[C@@H](C(=C)C)C[C@H]1C(=C)C [β-elemene]
- MIC [2, 20]: 256 µg/mL
- MIC [3, 21]: 256 µg/mL (≈ 1250 µM)
- MIC ([4]; compounds tested separately): 32 µg/mL
- MIC [5, 22]: >512 µg/mL

Compound: Cc1ccc(C(C)C)cc1 [p-cymene]
- MIC [8]: 91 µg/mL (≈ 678 µM)

Compound: CC(C)=CCC[C@](C)(O)C1CC=C(C)CC1 (stereo partly drawn) [bisabolol]
- IC50 (cytotoxicity) [6]: 71.12 µg/mL (≈ 320 µM)
- MIC [2, 20]: 16 µg/mL
- MIC [3, 21]: 16 µg/mL (≈ 72 µM)
- MIC ([4]; compounds tested separately): 64 µg/mL
- MIC [5, 22]: 128 µg/mL (≈ 576 µM)

Compound: Cc1ccc(C(C)C)c(O)c1 [thymol]
- MIC [8]: 0.78 µg/mL (≈ 5.19 µM)

Compound: NNC(=O)c1ccncc1 [INH, isoniazid, reference compound]
- IC50 at 48 h [7, 23]: > 500 µg/mL
- MIC [2, 9]: < 0.125 µg/mL
- MIC ([3]; Mycobacterium tuberculosis): < 0.125 µg/mL
- MIC [4, 16]: 0.125 µg/mL
- MIC ([5]; Mycobacterium tuberculosis): 8 µg/mL (≈ 58.3 µM)

Compound: C=C1CC/C=C(\C)CC[C@@H]2[C@@H]1CC2(C)C [β-caryophyllene]
- MIC [8]: 100 µg/mL (≈ 489 µM)

Compound: CC[C@@H](CO)NCCN[C@@H](CC)CO [EMB, ethambutol, reference compound]
- MIC [2, 24]: 0.25 µg/mL
- MIC ([3]; Mycobacterium tuberculosis): < 0.125 µg/mL
- MIC [4, 16]: 4 µg/mL
- MIC ([5]; Mycobacterium tuberculosis): 64 µg/mL (≈ 313 µM)
